How the values were obtained:
mouse bone marrow cells = assay: Induction of differentiation of mouse bone marrow cells with each test substance, viable cells by WST-8 assay; format: cell-based; details: plate coated with 1 μg test substance per well; WST-8 on Days 5, 10, 14 and 20; FIG. 10
Procedure: To fresh 10% FBS/RPMI medium, 1/10 volume of WST-8 (07553-15 Cell Count Reagent SF, manufactured by Nacalai Tesque Inc.) was added to prepare a medium for counting the number of viable cells. The old medium in the culture plate was removed by aspiration, and the medium for counting the number of viable cells was dispensed at 100 μl/well. The cells were cultured at 37° C. in a 5% CO2 incubator for 1 hour. The absorbance at 450 nm was measured using a microplate reader.
A 96-well cell culture plate was coated with each test substance in the same manner as described above, and mouse bone marrow cells were plated in the plate at 4×10^4 cells/100 μl/well.

TREM2 = assay: Ligand activity using TREM2 reporter cells (GFP-positive cells by flow cytometry); details: plate coated with 1 μg test substance per well; reporter cells cultured 16 hours; FIG. 9
Procedure: Using a retroviral vector, TREM2 and DAP12 cDNAs were introduced into 2B4-NFAT-GFP reporter cells (obtained from RIKEN), to prepare reporter cells in which binding of a ligand to TREM2 expressed on the cell surface induces expression of GFP (Iizasa and others, Nature Communications, 2021, vol. 12 (1), p. 2299-16).
As a test substance, β-GluCer, α-GalCer, palmitic acid, stearic acid, cholesterol, PC, LPC, PE, Sulf, or MA was diluted with methanol to 50 μg/ml. The test substance was aliquoted in 20-μl (1-μg) portions into a 96-well cell culture plate, and then the plate was left to stand in a clean bench, to evaporate the methanol.
In the culture plate coated with the test substance, the reporter cells were plated at 5×10^4 cells/100 μl/well. The cells were cultured in a CO2 incubator for 16 hours. The culture was suspended well, and transferred to a V-bottom 96-well plate. The sample was centrifuged at 500 G at 4° C. for 5 minutes, and then the supernatant was discarded. The sample was suspended by adding 50 μl/well of 10 μg/ml PI/1% FBS/HBSS. GFP-positive cells in the sample were analyzed by flow cytometry.

LIMs and BMDMs = assay: Cryopreservation test of LIMs and BMDMs; format: cell-based, mouse; details: −80° C. for thirty days; 25 ng/ml M-CSF; viable cells Day 6 or Day 14; FIG. 6
Procedure: LIMs and BMDMs at 80 to 90% confluence were detached from culture plates, and separately centrifuged at 500 G for 5 minutes, followed by discarding the supernatant. In a CELLBANKER 1 (manufactured by Nippon Zenyaku Kogyo Co., Ltd.), the cells were suspended at 5×10^5 to 5×10^6 cells per 1 ml, and the resulting suspension was transferred to a CryoTube, and stored at −80° C. Thirty days later, the cells were thawed, and plated in a 24-well plate without stimulation (None), with addition of 25 ng/ml M-CSF (M-CSF), or with brain lipid coating (BL). The number of viable cells on Day 6 or Day 14 after the plating was counted using a hemocytometer.

## phosphatidylethanolamine [PE]
Mouse bone marrow cells
  differentiation of bone marrow cells into LIMs: induced differentiation of the bone marrow cells into LIMs
TREM2
  ligand activity for TREM2: have ligand activity for TREM2

## β-glucosylceramide [β-GluCer]
Mouse bone marrow cells
  differentiation of bone marrow cells into LIMs: induced differentiation of the bone marrow cells into LIMs
TREM2
  ligand activity for TREM2: have ligand activity for TREM2

## CCCCCCCCCCCCCCCCCCCCCCCCCC(=O)N[C@@H](CO[C@H]1O[C@H](CO)[C@H](O)[C@H](O)[C@H]1O)[C@H](O)[C@H](O)CCCCCCCCCCCCCC [α-GalCer, α-galactosylceramide]
Mouse bone marrow cells
  differentiation of bone marrow cells into LIMs: induced differentiation of the bone marrow cells into LIMs
TREM2
  ligand activity for TREM2: have ligand activity for TREM2

## lysophosphatidylcholine [LPC]
Mouse bone marrow cells
  differentiation of bone marrow cells into LIMs: induced differentiation of the bone marrow cells into LIMs
TREM2
  ligand activity for TREM2: have ligand activity for TREM2

## phosphatidylcholine [PC]
Mouse bone marrow cells
  differentiation of bone marrow cells into LIMs: induced differentiation of the bone marrow cells into LIMs
TREM2
  ligand activity for TREM2: have ligand activity for TREM2

## mycolic acid [MA]
Mouse bone marrow cells
  differentiation of bone marrow cells into LIMs: induced differentiation of the bone marrow cells into LIMs
TREM2
  ligand activity for TREM2: have ligand activity for TREM2

## sulfatide
Mouse bone marrow cells
  differentiation of bone marrow cells into LIMs: induced differentiation of the bone marrow cells into LIMs
TREM2
  ligand activity for TREM2: have ligand activity for TREM2

B1: macrophage colony-stimulating factor (protein, UniProt P07141 33-552, looked up)
Macrophage colony-stimulating …: KEVSEHCSHMIGNGHLKVLQQLIDSQMETSCQIAFEFVDQEQLDDPVCYLKKAFFLVQDIIDETMRFKDNTPNANATERLQELSNNLNSCFTKDYEEQNKACVRTFHETPLQLLEKIKNFFNETKNLLEKDWNIFTKNCNNSFAKCSSRDVVTKPDCNCLYPKATPSSDPASASPHQPPAPSMAPLAGLAWDDSQRTEGSSLLPSELPLRIEDPGSAKQRPPRSTCQTLESTEQPNHGDRLTEDSQPHPSAGGPVPGVEDILESSLGTNWVLEEASGEASEGFLTQEAKFSPSTPVGGSIQAETDRPRALSASPFPKSTEDQKPVDITDRPLTEVNPMRPIGQTQNNTPEKTDGTSTLREDHQEPGSPHIATPNPQRVSNSATPVAQLLLPKSHSWGIVLPLGELEGKRSTRDRRSPAELEGGSASEGAARPVARFNSIPLTDTGHVEQHEGSSDPQIPESVFHLLVPGIILVLLTVGGLLFYKWKWRSHRDPQTLDSSVGRPEDSSLTQDEDRQVELPV
LIMs and BMDMs
  proliferation of BMDMs thawed after cryopreservation: did not proliferate

Reference: patent publication US20250059509A1, “METHOD FOR PRODUCING MACROPHAGES, DIFFERENTIATION INDUCING AGENT, DIFFERENTIATION INDUCTION KIT, METHOD FOR CULTURING MACROPHAGES, AGENT FOR PROMOTING MACROPHAGE PROPAGATION, KIT FOR PROMOTING MACROPHAGE PROLIFERATION, METHOD FOR MACROPHAGE PROLIFERATION, AND MACROPHAGES” (Kagoshima University, priority 2021, published 2025)
